Read-outs that look alike come from different tables or passages of the source.
What was measured:
recombinant RSV complex = recombinant RSV complex (Human respiratory syncytial virus A, UniProt P28887); test: RSV Polymerase Inhibition Assay; assay type: biochemical
Outline: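 10 nM recombinant RSV polymerase complex in Tris-HCl pH 7.5, 6 mM MgCl2 with RNA oligonucleotide template and radionucleotides, incubated 2 h at 30 °C with increasing inhibitor concentrations. Reaction stopped with EDTA; radiolabeled RNA product counted by scintillation.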

[1] = Cytotoxicity Determination (CCK-8, without addition of virus); assay type: cell-based; details: human, 50% cytotoxicity concentration (CC50)
Outline: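 HEp-2 cells were seeded at 1,500 cells/well one day before compound addition. Compounds were tested without virus in duplicate over 7 points from 100 μM in 1/2 steps, with 1% final DMSO, 5 days at 37 °C, 5% CO2. Viability was read by CCK-8 after 3-4 hours.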

[2] = test system: Respiratory Syncytial Virus (RSV) long strain; test: microbe, parasite or virus in culture; assay type: cell-based; details: human respiratory syncytial virus, Tables A and B list compounds by EC50 band
Outline: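 HEp-2 cells infected with 100 TCID50 virus per well, compounds in duplicate, 9-point 1/3 dilutions from 100 μM or 1 μM, 1% DMSO. After 5 days at 37 °C, cell viability (CPE protection) read by CCK-8 absorbance at 450 nm, 630 nm background.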

RSV replicon = test: microbe, parasite or virus in culture; assay type: cell-based; details: human respiratory syncytial virus, read-out: EC50, the concentration of the drug required for reducing RSV replicon RNA by 50%
[3] = HEp-2, 120 h, read-out: 50% effective concentration (EC50), HEp-2 cells infected with RSV long strain, 5 days, CCK-8 readout
[4] = 120 h, read-out: 50% effective concentration (EC50), HEp-2 cells infected with RSV long strain, 5 days, CCK-8 readout

Sequence of recombinant RSV complex (P28887 whole entry): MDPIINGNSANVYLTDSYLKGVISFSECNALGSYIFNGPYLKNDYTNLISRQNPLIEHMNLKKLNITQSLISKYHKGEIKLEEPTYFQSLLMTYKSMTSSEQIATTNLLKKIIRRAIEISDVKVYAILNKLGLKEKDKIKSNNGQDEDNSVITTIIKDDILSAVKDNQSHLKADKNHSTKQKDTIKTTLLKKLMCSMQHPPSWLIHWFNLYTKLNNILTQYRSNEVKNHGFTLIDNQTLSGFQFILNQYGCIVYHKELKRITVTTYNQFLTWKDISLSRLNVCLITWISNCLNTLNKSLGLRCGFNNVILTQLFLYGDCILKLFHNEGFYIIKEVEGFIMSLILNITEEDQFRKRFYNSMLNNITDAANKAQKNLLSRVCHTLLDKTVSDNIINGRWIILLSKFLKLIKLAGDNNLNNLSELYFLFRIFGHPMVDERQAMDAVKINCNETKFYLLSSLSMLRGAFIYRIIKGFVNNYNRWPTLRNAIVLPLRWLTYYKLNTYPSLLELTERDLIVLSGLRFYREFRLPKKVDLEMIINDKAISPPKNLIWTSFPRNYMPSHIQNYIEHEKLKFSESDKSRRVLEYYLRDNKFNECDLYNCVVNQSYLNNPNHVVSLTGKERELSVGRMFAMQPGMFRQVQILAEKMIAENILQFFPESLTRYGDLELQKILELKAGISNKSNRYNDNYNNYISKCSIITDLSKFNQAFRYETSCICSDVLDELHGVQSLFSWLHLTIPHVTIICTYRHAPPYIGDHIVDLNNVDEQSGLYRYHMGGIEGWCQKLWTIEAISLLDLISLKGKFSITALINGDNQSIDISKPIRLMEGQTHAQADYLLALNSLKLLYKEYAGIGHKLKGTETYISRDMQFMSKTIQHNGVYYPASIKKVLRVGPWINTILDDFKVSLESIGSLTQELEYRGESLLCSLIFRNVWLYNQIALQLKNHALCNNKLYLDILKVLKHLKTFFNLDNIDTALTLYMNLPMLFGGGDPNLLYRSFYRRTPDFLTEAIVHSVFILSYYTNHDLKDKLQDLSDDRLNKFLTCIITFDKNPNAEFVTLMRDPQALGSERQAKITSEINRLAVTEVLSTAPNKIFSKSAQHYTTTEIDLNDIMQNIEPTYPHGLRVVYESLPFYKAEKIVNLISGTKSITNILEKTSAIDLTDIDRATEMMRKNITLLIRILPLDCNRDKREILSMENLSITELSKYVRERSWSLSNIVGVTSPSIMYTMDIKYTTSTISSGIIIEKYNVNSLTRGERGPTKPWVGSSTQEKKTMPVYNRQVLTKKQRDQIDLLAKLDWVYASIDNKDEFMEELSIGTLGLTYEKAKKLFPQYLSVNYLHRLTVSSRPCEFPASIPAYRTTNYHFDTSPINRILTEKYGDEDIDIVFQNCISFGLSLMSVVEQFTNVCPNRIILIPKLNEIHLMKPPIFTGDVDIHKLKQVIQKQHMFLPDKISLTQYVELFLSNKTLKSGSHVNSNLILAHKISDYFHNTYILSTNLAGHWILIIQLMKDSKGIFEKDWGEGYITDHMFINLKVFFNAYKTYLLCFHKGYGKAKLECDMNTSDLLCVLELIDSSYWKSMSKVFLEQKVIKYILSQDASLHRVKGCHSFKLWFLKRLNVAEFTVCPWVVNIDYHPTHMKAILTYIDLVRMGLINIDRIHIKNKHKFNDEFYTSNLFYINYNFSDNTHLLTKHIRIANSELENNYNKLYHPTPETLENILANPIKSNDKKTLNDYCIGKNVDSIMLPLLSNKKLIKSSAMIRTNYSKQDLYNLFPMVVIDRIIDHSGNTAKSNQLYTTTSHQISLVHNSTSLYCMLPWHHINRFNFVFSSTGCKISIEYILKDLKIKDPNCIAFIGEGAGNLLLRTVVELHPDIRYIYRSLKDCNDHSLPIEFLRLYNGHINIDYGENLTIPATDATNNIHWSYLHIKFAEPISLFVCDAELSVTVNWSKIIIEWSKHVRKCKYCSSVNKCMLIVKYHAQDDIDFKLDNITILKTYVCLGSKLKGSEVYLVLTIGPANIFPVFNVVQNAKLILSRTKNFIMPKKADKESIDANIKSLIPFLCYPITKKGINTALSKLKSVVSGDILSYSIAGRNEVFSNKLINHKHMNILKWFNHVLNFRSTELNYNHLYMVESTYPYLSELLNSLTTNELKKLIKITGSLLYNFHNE
Sequence of recombinant RSV complex (P03421 whole entry, further chain): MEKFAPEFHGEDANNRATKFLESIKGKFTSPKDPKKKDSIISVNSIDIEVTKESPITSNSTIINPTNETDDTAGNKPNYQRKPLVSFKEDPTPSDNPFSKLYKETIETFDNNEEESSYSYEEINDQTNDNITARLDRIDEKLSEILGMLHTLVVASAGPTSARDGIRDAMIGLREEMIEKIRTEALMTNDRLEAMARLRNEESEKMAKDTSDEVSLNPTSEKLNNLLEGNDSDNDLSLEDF

With COc1cc(C(=O)NCC(C)(F)c2ccc(OC)c(-c3ccc(F)c(Cl)c3)n2)ccc1OCCF (stereo not shown) [Compound 364] the IC50 (recombinant RSV complex) was < 1000 nM, the CC50 at 5 days [1] was 10000 to 100000 nM and the EC50 [2, 3] was < 1000 nM. For the same compound, the EC50 (RSV replicon) was < 1000 nM.
For COc1cc(C(=O)NCC(O)(c2ccc(OC)c(-c3ccc(F)c(Cl)c3)n2)C2CC2)ccc1OCc1ncn[nH]1 (stereo not shown) [Compound 360], the IC50 (recombinant RSV complex) was < 1000 nM, the CC50 at 5 days [1] was 10000 to 100000 nM and the EC50 [2, 4] was < 1000 nM. For the same compound, the EC50 (RSV replicon) was < 1000 nM.
With COc1cc(C(=O)NC[C@](O)(c2cc(C(C)(C)N)cc(-c3ccc(F)cc3)n2)C(F)(F)F)ccc1OC[C@@H](C)O [Compound 546] the IC50 (recombinant RSV complex) was < 1000 nM, the CC50 at 5 days [1] was 10000 to 100000 nM and the EC50 [2, 3] was < 1000 nM. The EC50 (RSV replicon) was < 1000 nM.
For COc1cc(C(=O)NCC(C)(O)c2cc(C(C)(C)N)cc(-c3ccc(F)c(Cl)c3)n2)ccc1OC1CC1 (stereo not shown) [Compound 460], the IC50 (recombinant RSV complex) was < 1000 nM, the CC50 at 5 days [1] was 10000 to 100000 nM and the EC50 [2, 4] was < 1000 nM. For the same compound, the EC50 (RSV replicon) was < 1000 nM.
With COc1cc(C(=O)NCC(O)(Cn2ccnc2)c2cc3c(c(-c4ccc(F)c(Cl)c4)n2)OCC3(C)C)cc2cccnc12 (stereo not shown) [Compound 226] the IC50 (recombinant RSV complex) was < 1000 nM, the CC50 at 5 days [1] was 10000 to 100000 nM and the EC50 [2, 3] was < 1000 nM. For the same compound, the EC50 (RSV replicon) was < 1000 nM.
With COc1cc(C(=O)NCC(O)(c2cc(C(C)(C)N)cc(-c3ccc(F)cc3)n2)C(F)(F)F)ccc1OC1CC(O)C1 (stereo not shown) [Compound 596] the IC50 (recombinant RSV complex) was < 1000 nM, the CC50 at 5 days [1] was 10000 to 100000 nM and the EC50 [2, 3] was < 1000 nM. For the same compound, the EC50 (RSV replicon) was < 1000 nM.
In the case of COc1cc(C(=O)NCC(O)(c2cc3c(c(-c4ccc(F)c(Cl)c4)n2)OCC3(C)C)C(F)(F)F)ccc1OC1CCNC1=O (stereo not shown) [Compound 200], the IC50 (recombinant RSV complex) is reported as < 1000 nM, the CC50 at 5 days [1] is reported as 10000 to 100000 nM and the EC50 [2, 4] is reported as < 1000 nM. For the same compound, the EC50 (RSV replicon) was < 1000 nM.
With COc1cc(C(=O)NC[C@](O)(c2cc(C(C)(C)N)cc(-c3ccc(F)c(Cl)c3)n2)C(F)(F)F)ccc1OC[C@@H](C)O [Compound 552] the IC50 (recombinant RSV complex) was < 1000 nM, the CC50 at 5 days [1] was 10000 to 100000 nM and the EC50 [2, 3] was < 1000 nM. The EC50 (RSV replicon) was < 1000 nM.
In the case of COc1cc(C(=O)NCC(O)(c2cc(C(C)(C)NC(C)=O)cc(-c3ccc(F)c(Cl)c3)n2)C(F)(F)F)ccc1OC1CC1 (stereo not shown) [Compound 326], the IC50 (recombinant RSV complex) is reported as < 1000 nM, the CC50 at 5 days [1] is reported as 10000 to 100000 nM and the EC50 [2, 3] is reported as < 1000 nM. The EC50 (RSV replicon) was < 1000 nM.
With COc1cc(C(=O)NCC(O)(c2cc3c(c(-c4ccc(F)c(Cl)c4)n2)OCC3(C)C)C(F)(F)F)ccc1OC1CC1 (stereo not shown) [Compound 209] the IC50 (recombinant RSV complex) was < 1000 nM, the CC50 at 5 days [1] was > 100000 nM and the EC50 [2, 3] was < 1000 nM. For the same compound, the EC50 (RSV replicon) was < 1000 nM.
For COc1cc(C(=O)NCC(O)(c2cc3c(c(-c4ccc(F)c(Cl)c4)n2)OCC3(C)C)C(F)(F)F)cc2cccnc12 (stereo not shown) [Compound 208], the IC50 (recombinant RSV complex) was < 1000 nM, the CC50 at 5 days [1] was 10000 to 100000 nM and the EC50 [2, 3] was < 1000 nM. The EC50 (RSV replicon) was < 1000 nM.
With COc1cc(C(=O)NCC(O)(CF)c2ccc(OC)c(-c3ccc(F)c(Cl)c3)n2)ccc1OCCO (stereo not shown) [Compound 424] the IC50 (recombinant RSV complex) was < 1000 nM, the CC50 at 5 days [1] was 10000 to 100000 nM and the EC50 [2, 3] was < 1000 nM. For the same compound, the EC50 (RSV replicon) was < 1000 nM.
For COc1cc(C(=O)NCC(C)(O)c2ccc(OC)c(-c3ccc(F)c(Cl)c3)n2)ccc1OC1CC1 (stereo not shown) [Compound 369], the IC50 (recombinant RSV complex) was < 1000 nM, the CC50 at 5 days [1] was 10000 to 100000 nM and the EC50 [2, 3] was < 1000 nM. The EC50 (RSV replicon) was < 1000 nM.
In the case of COc1cc(C(=O)NCC(C)(O)c2ccc(OC)c(-c3c[nH]c4c(F)cccc34)n2)ccc1OCC(N)=O (stereo not shown) [Compound 419], the IC50 (recombinant RSV complex) is reported as < 1000 nM, the CC50 at 5 days [1] is reported as > 100000 nM and the EC50 [2, 3] is reported as < 1000 nM. The EC50 (RSV replicon) was < 1000 nM.
For COc1cc(C(=O)NCC(=O)c2cc3c(c(-c4ccc(F)c(Cl)c4)n2)OCC3(C)C)cc2cccnc12 [Compound 220], the IC50 (recombinant RSV complex) was < 1000 nM, the CC50 at 5 days [1] was > 100000 nM and the EC50 [2, 4] was < 1000 nM. For the same compound, the EC50 (RSV replicon) was 1000 to 50000 nM.
In the case of COc1cc(C(=O)NCC(C)(O)c2ccc(OC)c(-c3ccc(F)c(Br)c3)n2)ccc1OCC(N)=O (stereo not shown) [Compound 403], the IC50 (recombinant RSV complex) is reported as < 1000 nM, the CC50 at 5 days [1] is reported as > 100000 nM and the EC50 [2, 3] is reported as < 1000 nM. For the same compound, the EC50 (RSV replicon) was < 1000 nM.
For COc1ccc(C(O)(CNC(=O)c2ccc(OC[C@@H](C)O)c(Cl)c2)C(F)(F)F)nc1-c1ccc(F)c(Cl)c1 (stereo partly shown) [Compound 232], the IC50 (recombinant RSV complex) was < 1000 nM, the CC50 at 5 days [1] was 10000 to 100000 nM and the EC50 [2, 3] was < 1000 nM. For the same compound, the EC50 (RSV replicon) was < 1000 nM.
In the case of COc1cc(C(=O)NC[C@](O)(c2cc(C(C)(C)N)cc(-c3ccc(F)cc3)n2)C(F)(F)F)ccc1OCCO [Compound 554], the IC50 (recombinant RSV complex) is reported as < 1000 nM, the CC50 at 5 days [1] is reported as 10000 to 100000 nM and the EC50 [2, 3] is reported as < 1000 nM. The EC50 (RSV replicon) was < 1000 nM.
For COc1cc(C(=O)NCC(O)(Cn2ccnc2)c2ccc(OC)c(-c3ccc(F)c(Cl)c3)n2)ccc1OCCO (stereo not shown) [Compound 191], the IC50 (recombinant RSV complex) was < 1000 nM, the CC50 at 5 days [1] was > 100000 nM and the EC50 [2, 3] was < 1000 nM. For the same compound, the EC50 (RSV replicon) was < 1000 nM.

— patent publication US11021444B2, “Antiviral compounds” (priority 2013, dated 2021)
